This is an account of results in PMC9387934, “Randomized single oral dose phase 1 study of safety, tolerability, and pharmacokinetics of Iminosugar UV-4 Hydrochloride (UV-4B) in healthy subjects” (PLoS Neglected Tropical Diseases, 2022).

The test system of data set [1] is CYP1A2. Further details: method as in Investigator’s Brochure (IB). Particulars: in vitro; ref Investigator’s Brochure (IB); cited from earlier work.
Data set [2] relates to CYP2A6. Also on record: method as in Investigator’s Brochure (IB). Particulars: in vitro; ref Investigator’s Brochure (IB); cited from earlier work.
Data set [3] has as its system CYP2D6. Also on record: method as in Investigator’s Brochure (IB). Particulars: in vitro; ref Investigator’s Brochure (IB); cited from earlier work.
The conditions of data set [4]: in vitro; ref Investigator’s Brochure (IB); cited from earlier work.
On the set-up of data set [5]: method as in Investigator’s Brochure (IB). Particulars: mice, 1000 mg/kg single dose; ref Investigator’s Brochure (IB); cited from earlier work.
The nature of data set [6]: 14-day GLP toxicology study in dogs (UV4-COV-0035). The data set is classed as in vivo, dog. Here is the method:
Fourteen-day studies were conducted in mice and dogs. In dogs at 2 mg/kg/dose TID (6 mg/kg/day), there were mild decreases in platelets (PLT), increases in aspartate aminotransferase (AST) (up to 2.8 x baseline [BL]); and a decrease in thymus weight with lymphocyte depletion. Therefore, this dose exceeded the NOEL. At the no observed adverse event level (NOAEL) of 10 mg/kg/dose TID (30 mg/kg/day), there was an increase in the occurrence of poorly formed and liquid feces; decrease in PLT count and increase in activated partial thromboplastin time (aPTT) (2.2 x BL); increase in AST (up to 9.7 x BL) and alanine aminotransferase (ALT) (up to 2.9 x BL) with an inverted AST/ALT ratio; and a decrease in […]
lymphocyte depletion (no cellular debris was noted, however). The inverted AST/ALT ratio and lymphocyte depletion were reversible. Thymus weight decrease in females was reversible but thymus weight decreases in males were not. However, because the apparent […]
microscopic thymus findings, thymus weight differences at the recovery necropsy were considered not toxicologically important. […]
ng•h/mL, respectively. Daily exposure at NOAEL [calculated as 3 x AUC(0-8)] is estimated at 163,305 ng•h/mL. […]
Daily exposure [calculated as 3 x AUC(0-8)] is estimated at 32,820 ng•h/mL. […]

The nature of data set [7]: Reproductive toxicity upper limit study in rats, 12 days. Particulars: 50 mg/kg/day. The format is in vivo, rat. The protocol:
7. Reproductive toxicity:
UV-4B has been evaluated for developmental and reproductive toxicity in fertility and early embryonic development in rats, embryo-fetal development in rats and rabbits, and pre- and postnatal development in rats. In male and female rats given UV-4B at 8, 20, and 50 mg/kg/day before mating and continuing through Gestation Day 13, a […]
observed at 50 mg/kg/day. […]
count but following a 21-week treatment-free period there was complete recovery in pregnancy and fertility indices However, decrease in testicular weight, sperm motility […]
identify the upper limit of reproductive toxicity, a dose of 50 mg/kg/day for 12 […]
In a study designed to identify the upper limit of reproductive toxicity, a dose of 50 […]
rabbit offspring. The rat and rabbit doses are equivalent to 486 and 966 mg/day, […]
In summary, findings that have been identified in the UV-4B toxicology studies so far include effects on the GI tract (including ulcers/erosions), lymphocytes and lymphoid tissue, reduction in PLT count, and increases in transaminases (AST>ALT). Findings were generally consistent across mouse, dog, and rat, apart from the isolated finding of swollen paws/legs and perioral appearance and red skin which was seen only in the rat. […]

Details of data set [8]: method as in Investigator’s Brochure (IB). Particulars: 50 mg/kg/day for 13 days; ref Investigator’s Brochure (IB); cited from earlier work.
Data set [9] concerns cultured human lymphocytes. Particulars: in vitro; ref Investigator’s Brochure (IB); cited from earlier work.
Details of data set [10]: method as in Investigator’s Brochure (IB). Particulars: mice, up to 250 mg/kg TID (750 mg/kg/day); ref Investigator’s Brochure (IB); cited from earlier work.

Structures can show the parent of a compound that is named as a salt.

On to `COCCCCCCCCCN1C[C@H](O)[C@@H](O)[C@H](O)[C@H]1CO` [UV-4, N-(9’-methoxynonyl)-1-deoxynojirimycin], for which the “Direct inhibition of CYP1A2” value in [1] is on record as “No clinically relevant direct inhibition”. Besides, in [2], the “Direct inhibition of CYP2A6” value is recorded as “No clinically relevant direct inhibition”. Also, the “Direct inhibition of CYP2D6” value in data set [3] is “No clinically relevant direct inhibition”.
For the molecule `COCCCCCCCCCN1C[C@H](O)[C@@H](O)[C@H](O)[C@H]1CO` [UV-4B, N-(9’-methoxynonyl)-1-deoxynojirimycin hydrochloride], the “Mutagenicity, Ames bacterial reverse mutation (two assays)” value in data set [4] is “not found to be mutagenic or clastogenic”. Further, in data set [5], the Respiratory function result is listed as “no adverse treatment-related effects”. Besides, the AUC(0-t) in data set [6] (both sexes, dog, in vivo, 30 mg/kg/day, dogs, at NOAEL 30 mg/kg/day, read-out: Daily exposure [3 x AUC(0-8)]) was found to be 32800 ng·h/mL. The “HED of the lowest dose tested in dogs” value in data set [6] (from 2 mg/kg TID) is 67 mg TID. In addition, the “Human equivalent of the rat dose” value in data set [7] came to 486 mg/day. Further, the “Finding in rabbit offspring” value in [8] was “skeletal and visceral malformations”. Besides, in [9], the “Clastogenicity, chromosomal aberration in cultured human lymphocytes” value is “not found to be mutagenic or clastogenic”. Also, the CNS assessments result in data set [10] was “no adverse treatment-related effects”.
